Measured values taken from publication PMC7067379, “Mapping the S1 and S1’ subsites of cysteine proteases with new dipeptidyl nitrile inhibitors as trypanocidal agents” (PLoS Neglected Tropical Diseases, 2020).
Read-outs that look alike come from different tables or passages of the source.

Tests used:
[1] = target: Leishmania mexicana CPB (LmCPB) (Leishmania mexicana, UniProt P36400); test: LmCPB enzyme inhibition; type: biochemical; conditions: for remaining activity at 10 µM: replicates = 2; for Ki: SD lower than 15%, read-out: pKi LmCPB (converted)
Chain of Leishmania mexicana CPB (LmCPB) (P36400 126-443): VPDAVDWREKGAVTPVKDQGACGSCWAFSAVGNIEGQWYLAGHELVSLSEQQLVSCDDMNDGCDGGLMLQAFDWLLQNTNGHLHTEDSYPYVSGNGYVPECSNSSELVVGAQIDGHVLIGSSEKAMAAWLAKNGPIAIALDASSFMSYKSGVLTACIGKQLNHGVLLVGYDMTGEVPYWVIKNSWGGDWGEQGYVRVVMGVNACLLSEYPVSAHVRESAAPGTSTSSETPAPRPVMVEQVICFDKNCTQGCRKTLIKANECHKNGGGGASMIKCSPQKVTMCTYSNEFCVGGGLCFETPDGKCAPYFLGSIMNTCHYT
Protocol: (§1) Enzyme inhibition studies for Cz and LmCPB were performed as previously described for Cz. The experimental procedures are described in the Supporting Information (see chapter S3). Cathepsins B, L, S were assayed as reported.

[2] = test system: T. cruzi Tulahuen LacZ strain, intracellular amastigote forms; test: In vitro trypanocidal activity on intracellular amastigote forms (Tulahuen strain); type: cell-based, Trypanosoma cruzi; conditions: for EC50: Trypanosoma cruzi, TULAHUEN; for SI (selective index): from EC50 (T. cruzi) and CC50 (LLCMK2)
Protocol: Cells were evaluated in 96-well plates. Cells from the LLCMK2 lineage were plated at a concentration of 5x10^4 cells mL^-1. Trypomastigote forms of the Tulahuen LacZ strain were added at a concentration of 5×10^5 parasites mL^-1 and placed in the incubator at 37°C with 5% CO2 for 24 h. After the incubation period, the trypomastigote forms present were removed by successive washes with PBS, remaining only as intracellular amastigote forms. Compounds were added at different concentrations (1.95 μM to 250 μM serial dilutions) and incubated for 72 h. At the end of this period, the substrate CPRG (chlorophenol red β-D-galactopyranoside, 400 μM in 0.3% Triton X-100, pH 7.4) was added. […] Benznidazole was used as a positive control in the same concentrations as the substances, and DMSO as a negative control. Compounds were solubilized in DMSO. The selectivity index (SI) was calculated using the formula: […]. All statistical analyses were done with the program GraphPad Prism v.5.

[3] = target: cathepsin S (CatS) (Homo sapiens, UniProt P25774); test: Cathepsin S enzyme inhibition; type: biochemical; conditions: for Ki: SD lower than 15%, read-out: pKi CatS (converted)
Chain of cathepsin S (CatS) (P25774 115-331): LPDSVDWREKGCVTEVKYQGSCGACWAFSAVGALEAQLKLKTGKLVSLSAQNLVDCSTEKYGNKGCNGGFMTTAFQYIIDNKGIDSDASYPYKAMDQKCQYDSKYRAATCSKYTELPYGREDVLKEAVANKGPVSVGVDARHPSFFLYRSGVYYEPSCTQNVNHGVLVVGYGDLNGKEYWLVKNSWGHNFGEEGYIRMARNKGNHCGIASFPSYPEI
Protocol: as §1

[4] = target: cathepsin L (CatL) (Homo sapiens, UniProt P07711); test: Cathepsin L enzyme inhibition; type: biochemical; conditions: for remaining activity at 10 µM: replicates = 2, n.i. = no inhibition observed at 10 μM; for Ki: SD lower than 15%, read-out: pKi CatL (converted)
Chain of cathepsin L (CatL) (P07711 114-333): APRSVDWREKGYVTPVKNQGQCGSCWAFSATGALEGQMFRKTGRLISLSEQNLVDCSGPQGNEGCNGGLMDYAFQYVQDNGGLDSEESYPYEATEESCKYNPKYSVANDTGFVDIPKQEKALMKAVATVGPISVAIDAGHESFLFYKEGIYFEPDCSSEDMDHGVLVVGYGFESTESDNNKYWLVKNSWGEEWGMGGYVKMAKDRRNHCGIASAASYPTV

[5] = Mammalian cytotoxicity assay (MTT); type: cell-based; conditions: rhesus monkey, LLCMK2 cells;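 note: Read-out is absorbance at 570 nm of formazan taken up in DMSO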
Protocol: (§2) LLCMK2 cells were cultured in 96-well plates at a concentration of 5 x 10^4 cells/ml. After 48 h, the plates were washed twice with PBS and 200 μL RPMI medium was added with serial dilutions of the compounds and benznidazole (1.95 μM to 250 μM) in triplicate. After 72 h at 37 °C, the cytotoxic activity of the compounds was determined by the classical MTT [3- (4,5-dimethylthiazol-2-yl) -2,5-diphenyltetrazolium bromide] method. Briefly, 50 μL MTT dissolved in PBS (2.0 mg mL^-1) was added to each well and the plates were incubated for 4 h at 37 °C. The formed formazan crystals were dissolved with DMSO (50 μL/well) and the absorbance of the samples was measured by spectrophotometer at 570 nm after 30 min.

[6] = test system: LLCMK2 cells; test: Mammalian cytotoxicity assay (MTT); type: cell-based; conditions: LLCMK2, 72 h, MTT; Table 2;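 note: Read-out is absorbance at 570 nm of formazan taken up in DMSO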
Protocol: as §2

[7] = target: recombinant cruzain (Cz) (Trypanosoma cruzi, UniProt P25779); test: Cruzain enzyme inhibition; type: biochemical; conditions: for remaining activity at 10 µM: replicates = 2; for Ki: SD lower than 15%, read-out: pKi Cz (converted)
Chain of recombinant cruzain (Cz) (P25779 123-337): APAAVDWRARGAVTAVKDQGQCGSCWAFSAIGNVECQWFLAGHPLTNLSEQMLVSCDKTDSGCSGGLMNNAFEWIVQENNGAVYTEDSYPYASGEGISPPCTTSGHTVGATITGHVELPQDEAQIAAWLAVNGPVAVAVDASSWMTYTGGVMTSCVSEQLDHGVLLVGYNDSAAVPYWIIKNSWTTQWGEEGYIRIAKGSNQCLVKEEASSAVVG
Protocol: as §1

[8] = target: T1, Human recombinant cathepsin K (Homo sapiens, UniProt P43235); test: Cathepsin K assay; type: biochemical; conditions: for remaining activity at 10 µM: read-out: remaining activity (%) at 10 μM, CatK; for Ki: SD lower than 15%, read-out: pKi CatK (converted)
T1 sequence (P43235 115-329): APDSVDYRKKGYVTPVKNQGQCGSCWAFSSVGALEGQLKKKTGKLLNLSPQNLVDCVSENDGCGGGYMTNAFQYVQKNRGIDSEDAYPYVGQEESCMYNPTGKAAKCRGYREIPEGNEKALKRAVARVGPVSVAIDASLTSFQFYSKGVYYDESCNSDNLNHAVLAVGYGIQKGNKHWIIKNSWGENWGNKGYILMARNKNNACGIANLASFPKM
Protocol: Human recombinant cathepsin K was assayed on a FLUOSTAR Optima plate reader at 25 °C with an excitation wavelength of 360 nm and an emission wavelength of 440 nm on a 96 well plate. The enzyme solution (23 μg/mL in 50 mM sodium acetate pH 5.5, 50 mM NaCl, 0.5 mM EDTA, 5 mM DTT) was diluted 1:100 with assay buffer (100 mM sodium citrate buffer pH 5.0, 100 mM NaCl, 1 mM EDTA, 0.01% CHAPS) containing 5 mM DTT and was then incubated at 37 °C for 30 min for activation. A 1.5 mM stock solution of the substrate Z-Leu-Arg-AMC was prepared in DMSO. […] The assay was performed with a final concentration of cathepsin K of 1.73 ng/mL. Stock solutions of inhibitors were prepared in DMSO. The final DMSO concentration was 2% (4 μL). Into a well containing 194.5 μL assay buffer, 0.8 μL of the fluorogenic substrate, DMSO and inhibitor solution (3.2 μL) were added. Upon addition of cathepsin K (1.5 μL), the measurement was started and followed for 20 min.

[9] = target: cathepsin B (CatB) (Homo sapiens, UniProt P07858); test: Cathepsin B enzyme inhibition; type: biochemical; conditions: for remaining activity (%) at 10 μM, CatB / remaining activity at 10 µM: replicates = 2, n.i. = no inhibition observed at 10 μM
[10] = test system: T. cruzi infection; design: method as in PMID 14580960; conditions: mice ref 10, 11; cited from earlier work
[11] = test system: T. cruzi; design: method as in PMID 14580960; conditions: dogs ref 10, 11; cited from earlier work
[12] = dog, in vivo; cited from earlier work
[13] = 72 h, amastigote, Tulahuen strain, 72 h, Table 2, read-out: EC50 trypanocidal activity
[14] = T. cruzi amastigote form, S1 Table, read-out: pEC50 (converted)
[15] = 10 μM, replicates = 2, n.i. = no inhibition observed at 10 μM
[16] = LLCMK2, 72 h, MTT, Table 2, read-out: CC50 cytotoxicity
[17] = S1 Table, maximum concentration used 250 µM, read-out: CC50
[18] = S1 Table, maximum concentration used 250 µM, read-out: EC50 T. cruzi
[19] = amastigote forms of T. cruzi (Tuhaluen strain), Figs 12-14, unit inferred, read-out: EC50

| Structure (SMILES) | remaining activity at 10 µM [1] | EC50 [2, 13] | EC50 [2, 14] | remaining activity at 10 µM [4] | CC50 at 72 h [5, 16] | CC50 at 72 h [5, 17] | remaining activity at 10 µM [7] | remaining activity at 10 µM [8, 15] | melting point | Ki [1] | EC50 [2, 18] | Ki [3] | Ki [4] | Ki [7] | Ki [8] | SI (selective index) ([2]; Table 2) | remaining activity at 10 µM [9] | other results |
| --- | --- | --- | --- | --- | --- | --- | --- | --- | --- | --- | --- | --- | --- | --- | --- | --- | --- | --- |
| C[C@H](OCc1ccccc1)[C@H](C#N)NC(=O)[C@H](Cc1ccccc1)NC(=O)c1cc(C(C)(C)C)nn1C [Compound 57, N-((S)-1-(((1S,2S)-2-(Benzyloxy)-1-cyanopropyl)amino)-1-oxo-3-phenylpropan-2-yl)-3-(tert-butyl)-1-methyl-1H-pyrazole-5-carboxamide] | 72% | 4.3 ± 0.32 µM | 3.98 µM | 85% | ~125 µM | 141 µM | 75% | 97% | 123 to 124 °C |  |  |  |  |  |  |  |  | remaining activity (%) at 10 μM, CatS [3, 15]: n.i.^c; CC50 [6]: > 100 µM; remaining activity (%) at 10 μM, CatB [9]: n.i.^c |
| CC(C)C[C@H](NC(=O)c1cc(C(C)(C)C)nn1C)C(=O)N[C@H](C#N)[C@@H](C)OCc1ccccc1 [Compound 58, N-((S)-1-(((1R,2R)-2-(Benzyloxy)-1-cyanopropyl)amino)-4-methyl-1-oxopentan-2-yl)-3-(tert-butyl)-1-methyl-1H-pyrazole-5-carboxamide] |  |  | > 100 µM |  |  | > 100 µM |  |  | 96 to 97 °C | 20 nM | > 100 µM | 0.0501 µM | 63.1 nM | 12.6 nM | 15.8 nM |  |  | difference in pKi, LmCPB ([1]; relative to compound 11, sign not given, direction by cell colour or wording): 0.4; EC50 [2, 19]: > 100 µM; difference in pKi, Cz ([7]; relative to compound 9, sign not given, direction by cell colour or wording): 0.6; Ki ([9]; SD lower than 15%, read-out: pKi CatB (converted)): 7.94 µM |
| CC(C)C[C@H](NC(=O)c1cc(C(C)(C)C)nn1C)C(=O)N[C@@H](C#N)[C@H](C)OCc1ccccc1 [Compound 59, N-((S)-1-(((1S,2S)-2-(Benzyloxy)-1-cyanopropyl)amino)-4-methyl-1-oxopentan-2-yl)-3-(tert-butyl)-1-methyl-1H-pyrazole-5-carboxamide] | 75% |  | > 100 µM | 90% |  | > 100 µM | 60% |  | 110 to 111 °C |  | > 100 µM |  |  |  |  |  |  | EC50 [2, 19]: > 100 µM; remaining activity at 10 µM [3, 15]: 85%; remaining activity (%) at 10 μM, CatK [8, 15]: n.i.^c; remaining activity (%) at 10 μM, CatB [9]: n.i.^c |
| C[C@@H](O)[C@@H](C#N)NC(=O)[C@H](Cc1ccccc1)NC(=O)c1cc(C(C)(C)C)nn1C [Compound 65, 3-(tert-Butyl)-N-((S)-1-(((1R,2R)-1-cyano-2-hydroxypropyl)amino)-1-oxo-3-phenylpropan-2-yl)-1-methyl-1H-pyrazole-5-carboxamide] | 69% | 70.8 ± 8.79 µM | 79.4 µM |  | > 100 µM |  | 68% | 86% | 159 to 160 °C |  |  | 5.01 µM | 5010 nM |  |  | > 1.4 | 92% |  |
| C[C@H](O)[C@H](C#N)NC(=O)[C@H](Cc1ccccc1)NC(=O)c1cc(C(C)(C)C)nn1C [Compound 66, 3-(tert-Butyl)-N-((S)-1-(((1S,2S)-1-cyano-2-hydroxypropyl)amino)-1-oxo-3-phenylpropan-2-yl)-1-methyl-1H-pyrazole-5-carboxamide] |  | 30 ± 2.71 µM | 31.6 µM |  | > 100 µM |  |  | 81% | 145 to 147 °C | 15800 nM |  | 20 µM | 2510 nM | 3980 nM |  | > 3.3 | 89% |  |
| CC(C)C[C@H](NC(=O)c1cc(C(C)(C)C)nn1C)C(=O)N[C@H](C#N)[C@@H](C)O [Compound 67, 3-(tert-Butyl)-N-((S)-1-(((1R,2R)-1-cyano-2-hydroxypropyl)amino)-4-methyl-1-oxopentan-2-yl)-1-methyl-1H-pyrazole-5-carboxamide] |  | 24.4 ± 2.36 µM | 25.1 µM |  | > 100 µM |  |  |  | 118 to 119 °C | 200 nM |  | 10 µM | 100 nM | 79.4 nM | 15.8 nM | > 4.1 | 92% |  |
| CC(C)C[C@H](NC(=O)c1cc(C(C)(C)C)nn1C)C(=O)N[C@@H](C#N)[C@H](C)O [Compound 68, 3-(tert-Butyl)-N-((S)-1-(((1S,2S)-1-cyano-2-hydroxypropyl)amino)-4-methyl-1-oxopentan-2-yl)-1-methyl-1H-pyrazole-5-carboxamide] | 54% | 16 ± 4 µM | 15.8 µM | 88% | > 100 µM |  |  |  | 111 to 113 °C |  | 16.3 µM |  |  | 3980 nM | 7940 nM | > 6.3 | 93% | remaining activity at 10 µM [3, 15]: 83% |
| CN1CCN(C(=O)N[C@@H](Cc2ccccc2)C(=O)N[C@H](/C=C/S(=O)(=O)c2ccccc2)CCc2ccccc2)CC1 [Compound K777] |  |  |  |  |  |  |  |  |  |  |  |  |  |  |  |  |  | rescue from lethal infection [10]: rescue mice of a lethal experimental T. cruzi infection; effect on parasite growth [11]: reduce parasite growth; side effects [12]: substantial side effects |
